What follows are molecules tested against human CRTH2 (Homo sapiens (Human), UniProt Q9Y5Y4) (assay: Calcium Flux Assay Using Fluorometric Imaging Plate Reader (FLIPR)). Conditions: CHO-K1 cells with G-alpha 16 and human CRTH2; inhibition of DK-PGD2 ligand-induced Ca2+ flux.
human CRTH2, sequence (Q9Y5Y4 whole entry): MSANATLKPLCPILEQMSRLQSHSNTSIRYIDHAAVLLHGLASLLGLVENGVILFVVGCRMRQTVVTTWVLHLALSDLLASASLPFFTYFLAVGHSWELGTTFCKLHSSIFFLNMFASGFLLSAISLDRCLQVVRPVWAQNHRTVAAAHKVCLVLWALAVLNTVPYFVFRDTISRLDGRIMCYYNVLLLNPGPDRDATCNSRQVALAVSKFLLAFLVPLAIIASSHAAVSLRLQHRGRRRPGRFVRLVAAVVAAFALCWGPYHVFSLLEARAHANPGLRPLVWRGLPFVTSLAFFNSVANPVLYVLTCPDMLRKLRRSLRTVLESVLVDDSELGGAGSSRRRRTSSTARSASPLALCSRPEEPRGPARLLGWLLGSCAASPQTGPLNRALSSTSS
Assay type: cell-based
Description: Calcium Flux Assay Using Fluorometric Imaging Plate Reader (FLIPR)
Cell Culture Conditions: CHO-K1 cells previously transfected with G-alpha 16 were subsequently transfected with the human CRTH2 receptor and the neomycin resistance gene. Following selection in 800 μg/mL G418 (geneticin), individual clones were assayed for their receptor expression based on staining with an anti human CRTH2 IgG, followed by assaying for their response to 13,14-dihydro-15-keto Prostaglandin D2 (DK-PDG2) (ligand) in the Ca^2+ Flux assay. Positive clones were then cloned by limiting dilution cloning. The transfected cells were cultured in Ham's F-12 medium supplemented with 10% fetal bovine serum, 2 mM glutamine, 100 U/mL penicillin/100 μg/mL streptomycin, 200 μg/mL hygromycin B, and 800 μg/mL G418 (geneticin). Cells were harvested with trypsin-EDTA (trypsin-ethylenediaminetetraacetic acid) and counted using ViaCount® reagent (from Guava Technologies, Inc. which contains two DNA-binding dyes that enable the reagent user to distinguish between viable and non-viable cells). The cell suspension volume was adjusted to 2.5×10^5 cells/mL with complete growth media. Aliquots of 50 μL were dispensed into BD Falcon™ 384 well black/clear microplates (from BD Biosciences, a division of Becton, Dickinson and Company) and the microplates were placed in a 37° C. CO2 incubator overnight. The following day, the microplates were used in the assay.
Loading Buffer containing dye (from the FLIPR® Calcium 3 Assay Kit from Molecular Devices, a division of MDS Analytical Technologies and MDS Inc.) was prepared by dissolving the contents of one bottle into 200 mL Hank's Balanced Salt Solution containing 20 mM HEPES (4-(2-hydroxyethyl)-1-piperazineethanesulfonic acid) and 2.5 mM probenecid. Growth media was removed from the cell plates and 25 μL of Hank's Balanced Salt Solution (HBSS) containing 20 mM HEPES, 0.05% BSA and 2.5 mM probenecid was added to each well followed by 25 μL of diluted dye using a Multidrop dispenser. The plates were then incubated for 1 hour at 37° C.
During the incubation, test compound plates were prepared by adding 90 μL of HBSS/20 mM HEPES/0.005% BSA buffer to the 2 μL of serial diluted compounds. To prepare serial diluted compounds, 20 mM stocks of compounds were dissolved in 100% DMSO. The compound dilution plate was set up as follows: well #1 received 5 μL of compound plus 10 μL of DMSO. Wells 2-10 received 10 μL of DMSO. 5 μL was mixed and transferred from well #1 into well #2. 1:3 serial dilutions were continued out 10 steps. 2 μL of diluted compound was transferred into duplicate wells of a 384 well “assay plate” and then 90 μL of buffer was added.
After incubation, both the cell and “assay plate” plates were brought to the fluorometric imaging plate reader (FLIPR®) and 20 μL of the diluted compounds were transferred to the cell plates by the FLIPR®. Plates were then incubated for 1 hour at room temperature. […] During the assay, fluorescence readings were taken simultaneously from all 384 wells of the cell plate every 1.5 seconds. Five readings were taken to establish a stable baseline, then 20 μL of sample was rapidly (30 μL/sec) and simultaneously added to each well of the cell plate. The fluorescence was continuously monitored before, during and after sample addition for a total elapsed time of 100 seconds. Responses (increase in peak fluorescence) in each well following agonist addition were determined. The initial fluorescence reading from each well, prior to ligand stimulation, was used as a zero baseline value for the data from that well. The responses were expressed as % inhibition of the buffer control.
Work on `Cc1c(CC(=O)O)cc2ccc(Cl)cc2c1-c1ccc(S(=O)(=O)N2CCCCC2)cc1` [Example 34, {6-Chloro-3-methyl-4-[4-(piperidine-1-sulfonyl)-phenyl]-naphthalen-2-yl}-acetic acid] yielded an IC50 of 0.9 nM. With `Cc1c(CC(=O)O)cc2ccc(F)cc2c1-c1ccc(S(=O)(=O)c2cc(C(F)(F)F)cc(C(F)(F)F)c2)cc1` [Example 12, {4-[4-(3,5-Bis-trifluoromethyl-benzenesulfonyl)-phenyl]-6-fluoro-3-methyl-naphthalen-2-yl}-acetic acid] the IC50 was 14 nM. `Cc1c(CC(=O)O)cc2ccc(Cl)cc2c1-c1ccc(S(=O)(=O)c2ccc(OC(F)(F)F)cc2)cc1` [Example 20, {6-Chloro-3-methyl-4-[4-(4-trifluoromethoxy-benzenesulfonyl)-phenyl]-naphthalen-2-yl}-acetic acid] was tested, and the IC50 was 12.9 nM. `Cc1c(CC(=O)O)cc2ccc(F)cc2c1-c1ccc(S(=O)(=O)NC(C)C)cc1` [Example 50, [6-Fluoro-4-(4-isopropylsulfamoyl-phenyl)-3-methyl-naphthalen-2-yl]-acetic acid] showed an IC50 of 1.7 nM. `COc1ccc(CNS(=O)(=O)c2ccc(-c3c(C)c(CC(=O)O)cc4ccc(F)cc34)cc2)cc1` [Example 52, {6-Fluoro-4-[4-(4-methoxy-benzylsulfamoyl)-phenyl]-3-methyl-naphthalen-2-yl}-acetic acid] was tested, and the IC50 was 3.2 nM. In the case of `Cc1c(CC(=O)O)cc2ccc(F)cc2c1-c1ccc(S(=O)(=O)c2c(F)cccc2F)cc1` [Example 11, {4-[4-(2,6-Difluoro-benzenesulfonyl)-phenyl]-6-fluoro-3-methyl-naphthalen-2-yl}-acetic acid], the IC50 is reported as 1.2 nM. Work on `Cc1c(CC(=O)O)cc2ccc(F)cc2c1-c1ccc(S(=O)(=O)N2CCCC2)cc1` [Example 46, {6-Fluoro-3-methyl-4-[4-(pyrrolidine-1-sulfonyl)-phenyl]-naphthalen-2-yl}-acetic acid] yielded an IC50 of 0.7 nM. Molecule `Cc1c(CC(=O)O)cc2ccc(Cl)cc2c1-c1ccc(S(=O)(=O)NCc2ccccc2)cc1` [Example 38, [4-(4-Benzylsulfamoyl-phenyl)-6-chloro-3-methyl-naphthalen-2-yl]-acetic acid] has an IC50 of 1.6 nM. Molecule `Cc1c(Cl)cccc1NS(=O)(=O)c1ccc(-c2c(C)c(CC(=O)O)cc3ccc(Cl)cc23)cc1` [Example 31, {6-Chloro-4-[4-(3-chloro-2-methyl-phenylsulfamoyl)-phenyl]-3-methyl-naphthalen-2-yl}-acetic acid] has an IC50 of 6.7 nM. With `Cc1c(CC(=O)O)cc2ccc(F)cc2c1-c1ccc(S(=O)(=O)Nc2cccc(Cl)c2)cc1` [Example 45, {4-[4-(3-Chloro-phenylsulfamoyl)-phenyl]-6-fluoro-3-methyl-naphthalen-2-yl}-acetic acid] the IC50 was 1.5 nM. `Cc1c(CC(=O)O)cc2ccc(Cl)cc2c1-c1ccc(S(=O)(=O)NC2CCCCC2)cc1` [Example 36, [6-Chloro-4-(4-cyclohexylsulfamoyl-phenyl)-3-methyl-naphthalen-2-yl]-acetic acid] showed an IC50 of 6.1 nM. Work on `Cc1c(CC(=O)O)cc2ccc(F)cc2c1-c1ccc(S(=O)(=O)c2cc(Cl)ccc2Cl)cc1` [Example 9, {4-[4-(2,5-Dichloro-benzenesulfonyl)-phenyl]-6-fluoro-3-methyl-naphthalen-2-yl}-acetic acid] yielded an IC50 of 3.7 nM. In the case of `Cc1c(CC(=O)O)cc2ccc(Cl)cc2c1-c1ccc(S(=O)(=O)NCCO)cc1` [Example 56, {6-Chloro-4-[4-(2-hydroxy-ethylsulfamoyl)-phenyl]-3-methyl-naphthalen-2-yl}-acetic acid], the IC50 is reported as 5.6 nM. `Cc1c(CC(=O)O)cc2ccc(F)cc2c1-c1ccc(S(=O)(=O)c2ccc(Cl)cc2Cl)cc1` [Example 8, {4-[4-(2,4-Dichloro-benzenesulfonyl)-phenyl]-6-fluoro-3-methyl-naphthalen-2-yl}-acetic acid] gave an IC50 of 9.1 nM. `Cc1c(CC(=O)O)cc2ccc(F)cc2c1-c1ccc(S(=O)(=O)NC2CCCCC2)cc1` [Example 49, [4-(4-Cyclohexylsulfamoyl-phenyl)-6-fluoro-3-methyl-naphthalen-2-yl]-acetic acid] showed an IC50 of 1.5 nM. Work on `Cc1c(CC(=O)O)cc2ccc(F)cc2c1-c1ccc(S(=O)(=O)NCc2ccccc2)cc1` [Example 51, [4-(4-Benzylsulfamoyl-phenyl)-6-fluoro-3-methyl-naphthalen-2-yl]-acetic acid] yielded an IC50 of 0.4 nM. For `COc1ccc(CN(C(C)C)S(=O)(=O)c2ccc(-c3c(C)c(CC(=O)O)cc4ccc(Cl)cc34)cc2)cc1` [Example 40, (6-Chloro-4-{4-[isopropyl-(4-methoxy-benzyl)-sulfamoyl]-phenyl}-3-methyl-naphthalen-2-yl)-acetic acid], the IC50 was 3.1 nM. `Cc1c(CC(=O)O)cc2ccc(Cl)cc2c1-c1ccc(S(=O)(=O)Nc2ccc(OC(F)(F)F)cc2)cc1` [Example 30, {6-Chloro-3-methyl-4-[4-(4-trifluoromethoxy-phenylsulfamoyl)-phenyl]-naphthalen-2-yl}-acetic acid] gave an IC50 of 34.3 nM. Work on `Cc1c(CC(=O)O)cc2ccc(F)cc2c1-c1ccc(S(=O)(=O)c2ccc(F)cc2F)cc1` [Example 10, {4-[4-(2,4-Difluoro-benzenesulfonyl)-phenyl]-6-fluoro-3-methyl-naphthalen-2-yl}-acetic acid] yielded an IC50 of 1.2 nM. In the case of `Cc1c(CC(=O)O)cc2ccc(F)cc2c1-c1ccc(S(=O)(=O)c2cc(Cl)cc(Cl)c2)cc1` [Example 13, {4-[4-(3,5-Dichloro-benzenesulfonyl)-phenyl]-6-fluoro-3-methyl-naphthalen-2-yl}-acetic acid], the IC50 is reported as 5.4 nM. With `Cc1c(CC(=O)O)cc2ccc(Cl)cc2c1-c1ccc(S(=O)(=O)c2ccc(F)cc2F)cc1` [Example 23, {6-Chloro-4-[4-(2,4-difluoro-benzenesulfonyl)-phenyl]-3-methyl-naphthalen-2-yl}-acetic acid] the IC50 was 2.3 nM. In the case of `Cc1c(CC(=O)O)cc2ccc(Cl)cc2c1-c1ccc(S(=O)(=O)c2ccccc2OC(F)(F)F)cc1` [Example 19, {6-Chloro-3-methyl-4-[4-(2-trifluoromethoxy-benzenesulfonyl)-phenyl]-naphthalen-2-yl}-acetic acid], the IC50 is reported as 19.7 nM. `Cc1c(CC(=O)O)cc2ccc(F)cc2c1-c1ccc(S(=O)(=O)c2ccc(OC(F)(F)F)cc2)cc1` [Example 7, {6-Fluoro-3-methyl-4-[4-(4-trifluoromethoxy-benzenesulfonyl)-phenyl]-naphthalen-2-yl}-acetic acid] was tested, and the IC50 was 15.8 nM. `COc1ccc(CNS(=O)(=O)c2ccc(-c3c(C)c(CC(=O)O)cc4ccc(Cl)cc34)cc2)cc1` [Example 39, {6-Chloro-4-[4-(4-methoxy-benzylsulfamoyl)-phenyl]-3-methyl-naphthalen-2-yl}-acetic acid] was tested, and the IC50 was 13.2 nM. Molecule `CCN(CC)S(=O)(=O)c1ccc(-c2c(C)c(CC(=O)O)cc3ccc(F)cc23)cc1` [Example 48, [4-(4-Diethylsulfamoyl-phenyl)-6-fluoro-3-methyl-naphthalen-2-yl]-acetic acid] has an IC50 of 1.8 nM. `Cc1c(CC(=O)O)cc2ccc(Cl)cc2c1-c1ccc(S(=O)(=O)Nc2cccc(Cl)c2)cc1` [Example 32, {6-Chloro-4-[4-(3-chloro-phenylsulfamoyl)-phenyl]-3-methyl-naphthalen-2-yl}-acetic acid] showed an IC50 of 4.7 nM. `Cc1c(CC(=O)O)cc2ccc(Cl)cc2c1-c1ccc(S(=O)(=O)c2ccccc2C(F)(F)F)cc1` [Example 18, {6-Chloro-3-methyl-4-[4-(2-trifluoromethyl-benzenesulfonyl)-phenyl]-naphthalen-2-yl}-acetic acid] was tested, and the IC50 was 2.3 nM. Work on `Cc1ccc(NS(=O)(=O)c2ccc(-c3c(C)c(CC(=O)O)cc4ccc(F)cc34)cc2)cc1` [Example 42, [6-Fluoro-3-methyl-4-(4-p-tolylsulfamoyl-phenyl)-naphthalen-2-yl]-acetic acid] yielded an IC50 of 0.9 nM. Work on `Cc1c(CC(=O)O)cc2ccc(Cl)cc2c1-c1ccc(S(=O)(=O)NC(C)C)cc1` [Example 37, [6-Chloro-4-(4-isopropylsulfamoyl-phenyl)-3-methyl-naphthalen-2-yl]-acetic acid] yielded an IC50 of 1.5 nM.

Reference: US9000044B2, “Substituted naphthylacetic acids” (Hoffmann-La Roche Inc., priority 2012, dated 2015)
